Earlier results as cited in paper doi:10.1101/2020.07.01.182659 (bioRxiv, 2020).

Substance	Km (ACE2)	kcat/Km (ACE2)	affinity to APJR (in words) (APJR)	decrease of potency after cleavage of C-terminal phenylalanine (APJR)	ACE2 activity on peptide (in words) (ACE2)	loss of potency on removal of C-terminal lysine (opioid receptors)
QRPRLSHKGPMP↓F [Apelin-13]	< 10 µM	> 1e+06 M⁻¹ s⁻¹	nanomolar affinity	2–5 fold	–	–
YPFVEP↓I [β–Casomorphin]	–	–	–	–	good ACE2 substrate	–
YGGFLRRIRPKL↓K [Dynorphin A 1–13]	< 10 µM	> 1e+06 M⁻¹ s⁻¹	–	–	good ACE2 substrate	90%
